{"source": "patent US7118895B2", "about": "“Process for producing aglycon by using diglycosidase and flavor-improved food containing the aglycon and converting agent to be used in the process” (Amano Enzyme Inc., priority 2000, dated 2006)", "test_system": "Crude diglycosidase", "assay": "Examination of pH in the conversion into isoflavone aglycons by diglycosidase using soybean materials", "type": "biochemical, Penicillium multicolor IAM7153", "details": "for Decomposition efficiency of glycitin family in roasted soy flour / Decomposition efficiency of glycitin family in soymilk / existing ratio of aglycon of each isoflavone family: 55° C.", "description": "A substrate solution of 450 μL was prepared by suspending 50 mg of each soybean material (roasted soy flour (manufactured by Fuji Shokuryo K.K.), soymilk (manufactured by Gitoh Shokuhin K.K.), defatted soybean (manufactured by Fuji Seiyu K.K.), concentrated soybean protein (manufactured by Fuji Seiyu K.K.)), and adjusting the pH to 2 to 11 with hydrochloric acid or sodium hydroxide. Each enzyme solution of pH 2–11 wherein diglycosidase activity of crude diglycosidase was adjusted to 1.88 AU/mL was added thereto in an amount of 50 μL and the whole was reacted at 55° C. at the total volume of 500 μL. To the reaction mixture was added 700 μL of ethanol after 0, 1, 3, and 6 hours of the reaction. After stirring and ultrasonication, the mixture was subjected to centrifugal separation at 15,000 rpm and 4° C. for 10 minutes. The supernatant was filtered through a filter and the existence of isoflavone glycosides and aglycon isoflavones contained in the reaction mixture was detected by HLPC (Tables 15 to 26).", "key": {"[1]": {"details": "pH6.6, heat treatment of enzyme: no, reaction time 0 h"}, "[2]": {"details": "pH6.6, heat treatment of enzyme: no, reaction time 1 h"}, "[3]": {"details": "pH6.6, heat treatment of enzyme: no, reaction time 3 h"}, "[4]": {"details": "pH6.6, heat treatment of enzyme: no, reaction time 6 h"}, "[5]": {"details": "pH6.6, heat treatment of enzyme: yes, reaction time 6 h"}}}
{"smiles": "COc1cc2c(=O)c(-c3ccc(O)cc3)coc2cc1O", "note": "[glycitein]", "values": [{"measurement": "Decomposition efficiency of glycitin family in roasted soy flour", "setting": "pH5, heat treatment of enzyme no, reaction time 0 h", "value": 8.6}, {"measurement": "Decomposition efficiency of glycitin family in roasted soy flour", "setting": "pH5, heat treatment of enzyme no, reaction time 1 h", "value": 77.1}, {"measurement": "Decomposition efficiency of glycitin family in roasted soy flour", "setting": "pH5, heat treatment of enzyme no, reaction time 3 h", "value": 93.5}, {"measurement": "Decomposition efficiency of glycitin family in roasted soy flour", "setting": "pH5, heat treatment of enzyme no, reaction time 6 h", "value": 100.0}, {"measurement": "Decomposition efficiency of glycitin family in roasted soy flour", "setting": "pH5, heat treatment of enzyme yes, reaction time 6 h", "value": 9.4}, {"measurement": "Decomposition efficiency of glycitin family in concentrated soybean protein", "setting": "pH5.1, heat treatment of enzyme: no, reaction time 0 h", "value": 11.1, "unit": "%"}, {"measurement": "Decomposition efficiency of glycitin family in concentrated soybean protein", "setting": "pH5.1, heat treatment of enzyme: no, reaction time 1 h", "value": 62.1, "unit": "%"}, {"measurement": "Decomposition efficiency of glycitin family in concentrated soybean protein", "setting": "pH5.1, heat treatment of enzyme: no, reaction time 3 h", "value": 73.4, "unit": "%"}, {"measurement": "Decomposition efficiency of glycitin family in concentrated soybean protein", "setting": "pH5.1, heat treatment of enzyme: no, reaction time 6 h", "value": 78.5, "unit": "%"}, {"measurement": "Decomposition efficiency of glycitin family in concentrated soybean protein", "setting": "pH5.1, heat treatment of enzyme: yes, reaction time 6 h", "value": 11.5, "unit": "%"}, {"measurement": "Decomposition efficiency of glycitin family in defatted soybean", "setting": "pH5.4, heat treatment of enzyme: no, reaction time 0 h", "value": 36.0, "unit": "%"}, {"measurement": "Decomposition efficiency of glycitin family in defatted soybean", "setting": "pH5.4, heat treatment of enzyme: no, reaction time 1 h", "value": 54.9, "unit": "%"}, {"measurement": "Decomposition efficiency of glycitin family in defatted soybean", "setting": "pH5.4, heat treatment of enzyme: no, reaction time 3 h", "value": "not detected"}, {"measurement": "Decomposition efficiency of glycitin family in defatted soybean", "setting": "pH5.4, heat treatment of enzyme: no, reaction time 6 h", "value": 67.7, "unit": "%"}, {"measurement": "Decomposition efficiency of glycitin family in defatted soybean", "setting": "pH5.4, heat treatment of enzyme: yes, reaction time 6 h", "value": 60.7, "unit": "%"}, {"measurement": "Decomposition efficiency of glycitin family in soymilk", "setting": "pH6.2, heat treatment of enzyme no, reaction time 0 h", "value": 6.2}, {"measurement": "Decomposition efficiency of glycitin family in soymilk", "setting": "pH6.2, heat treatment of enzyme no, reaction time 1 h", "value": 53.6}, {"measurement": "Decomposition efficiency of glycitin family in soymilk", "setting": "pH6.2, heat treatment of enzyme no, reaction time 3 h", "value": 65.5}, {"measurement": "Decomposition efficiency of glycitin family in soymilk", "setting": "pH6.2, heat treatment of enzyme no, reaction time 6 h", "value": 70.4}, {"measurement": "Decomposition efficiency of glycitin family in soymilk", "setting": "pH6.2, heat treatment of enzyme yes, reaction time 6 h", "value": 8.2}, {"measurement": "Decomposition efficiency of glycitin family in roasted soy flour", "setting": "pH6.5, heat treatment of enzyme no, reaction time 0 h", "value": 8.8}, {"measurement": "Decomposition efficiency of glycitin family in roasted soy flour", "setting": "pH6.5, heat treatment of enzyme no, reaction time 1 h", "value": 65.0}, {"measurement": "Decomposition efficiency of glycitin family in roasted soy flour", "setting": "pH6.5, heat treatment of enzyme no, reaction time 3 h", "value": 80.3}, {"measurement": "Decomposition efficiency of glycitin family in roasted soy flour", "setting": "pH6.5, heat treatment of enzyme no, reaction time 6 h", "value": 88.1}, {"measurement": "Decomposition efficiency of glycitin family in roasted soy flour", "setting": "pH6.5, heat treatment of enzyme yes, reaction time 6 h", "value": 9.8}, {"measurement": "Decomposition efficiency of glycitin family in concentrated soybean protein", "setting": "[1]", "value": 11.3, "unit": "%"}, {"measurement": "Decomposition efficiency of glycitin family in defatted soybean", "setting": "[1]", "value": 60.4, "unit": "%"}, {"measurement": "Decomposition efficiency of glycitin family in concentrated soybean protein", "setting": "[2]", "value": 42.2, "unit": "%"}, {"measurement": "Decomposition efficiency of glycitin family in defatted soybean", "setting": "[2]", "value": 47.1, "unit": "%"}, {"measurement": "Decomposition efficiency of glycitin family in concentrated soybean protein", "setting": "[3]", "value": 60.3, "unit": "%"}, {"measurement": "Decomposition efficiency of glycitin family in defatted soybean", "setting": "[3]", "value": 46.4, "unit": "%"}, {"measurement": "Decomposition efficiency of glycitin family in concentrated soybean protein", "setting": "[4]", "value": 68.1, "unit": "%"}, {"measurement": "Decomposition efficiency of glycitin family in defatted soybean", "setting": "[4]", "value": 41.9, "unit": "%"}, {"measurement": "Decomposition efficiency of glycitin family in concentrated soybean protein", "setting": "[5]", "value": 11.1, "unit": "%"}, {"measurement": "Decomposition efficiency of glycitin family in defatted soybean", "setting": "[5]", "value": 49.7, "unit": "%"}, {"measurement": "Decomposition efficiency of glycitin family in soymilk", "setting": "pH7.2, heat treatment of enzyme no, reaction time 0 h", "value": 6.1}, {"measurement": "Decomposition efficiency of glycitin family in soymilk", "setting": "pH7.2, heat treatment of enzyme no, reaction time 1 h", "value": 51.2}, {"measurement": "Decomposition efficiency of glycitin family in soymilk", "setting": "pH7.2, heat treatment of enzyme no, reaction time 3 h", "value": 53.8}, {"measurement": "Decomposition efficiency of glycitin family in soymilk", "setting": "pH7.2, heat treatment of enzyme no, reaction time 6 h", "value": 58.4}, {"measurement": "Decomposition efficiency of glycitin family in soymilk", "setting": "pH7.2, heat treatment of enzyme yes, reaction time 6 h", "value": 5.6}, {"measurement": "Decomposition efficiency of glycitin family in defatted soybean", "setting": "pH7.8, heat treatment of enzyme: no, reaction time 0 h", "value": 33.2, "unit": "%"}, {"measurement": "Decomposition efficiency of glycitin family in defatted soybean", "setting": "pH7.8, heat treatment of enzyme: no, reaction time 1 h", "value": 42.5, "unit": "%"}, {"measurement": "Decomposition efficiency of glycitin family in defatted soybean", "setting": "pH7.8, heat treatment of enzyme: no, reaction time 3 h", "value": 46.8, "unit": "%"}, {"measurement": "Decomposition efficiency of glycitin family in defatted soybean", "setting": "pH7.8, heat treatment of enzyme: no, reaction time 6 h", "value": 50.9, "unit": "%"}, {"measurement": "Decomposition efficiency of glycitin family in defatted soybean", "setting": "pH7.8, heat treatment of enzyme: yes, reaction time 6 h", "value": 44.2, "unit": "%"}, {"measurement": "Decomposition efficiency of glycitin family in roasted soy flour", "setting": "pH8.5, heat treatment of enzyme no, reaction time 0 h", "value": 9.6}, {"measurement": "Decomposition efficiency of glycitin family in roasted soy flour", "setting": "pH8.5, heat treatment of enzyme no, reaction time 1 h", "value": 28.2}, {"measurement": "Decomposition efficiency of glycitin family in roasted soy flour", "setting": "pH8.5, heat treatment of enzyme no, reaction time 3 h", "value": 40.1}, {"measurement": "Decomposition efficiency of glycitin family in roasted soy flour", "setting": "pH8.5, heat treatment of enzyme no, reaction time 6 h", "value": 47.4}, {"measurement": "Decomposition efficiency of glycitin family in roasted soy flour", "setting": "pH8.5, heat treatment of enzyme yes, reaction time 6 h", "value": 9.1}, {"measurement": "Decomposition efficiency of glycitin family in concentrated soybean protein", "setting": "pH8.6, heat treatment of enzyme: no, reaction time 0 h", "value": 11.7, "unit": "%"}, {"measurement": "Decomposition efficiency of glycitin family in concentrated soybean protein", "setting": "pH8.6, heat treatment of enzyme: no, reaction time 1 h", "value": 15.4, "unit": "%"}, {"measurement": "Decomposition efficiency of glycitin family in concentrated soybean protein", "setting": "pH8.6, heat treatment of enzyme: no, reaction time 3 h", "value": 21.0, "unit": "%"}, {"measurement": "Decomposition efficiency of glycitin family in concentrated soybean protein", "setting": "pH8.6, heat treatment of enzyme: no, reaction time 6 h", "value": 30.9, "unit": "%"}, {"measurement": "Decomposition efficiency of glycitin family in concentrated soybean protein", "setting": "pH8.6, heat treatment of enzyme: yes, reaction time 6 h", "value": 11.3, "unit": "%"}, {"measurement": "Decomposition efficiency of glycitin family in soymilk", "setting": "pH11.6, heat treatment of enzyme no, reaction time 0 h", "value": 6.2}, {"measurement": "Decomposition efficiency of glycitin family in soymilk", "setting": "pH11.6, heat treatment of enzyme no, reaction time 1 h", "value": 49.6}, {"measurement": "Decomposition efficiency of glycitin family in soymilk", "setting": "pH11.6, heat treatment of enzyme no, reaction time 3 h", "value": 53.5}, {"measurement": "Decomposition efficiency of glycitin family in soymilk", "setting": "pH11.6, heat treatment of enzyme no, reaction time 6 h", "value": 56.0}, {"measurement": "Decomposition efficiency of glycitin family in soymilk", "setting": "pH11.6, heat treatment of enzyme yes, reaction time 6 h", "value": 5.8}, {"measurement": "existing ratio of aglycon of each isoflavone family", "setting": "roasted soy flour, pH 4 for 6 hours", "value": 100, "unit": "%"}, {"measurement": "existing ratio of aglycon of each isoflavone family", "setting": "soymilk, pH 3.5 for 6 hours", "value": 100, "unit": "%"}]}
